Results taken from US20170253601A1, “Substituted Pyrrolidine Compounds” (EPIZYME, INC., priority 2014, published 2017).

molecular target: T1, SMYD2 (Homo sapiens, UniProt Q9NRG4); assay: SMYD2 Biochemical Assay (3H-SAM, biotinylated peptide substrate, Flashplate); settings: IC50 values are an average of n = 1 to n = 50; read-out: SMYD2 Biochem IC50 (μM)*
T1 construct: Full length SMYD2 (NP 064582.2) was cloned; His6 (N, cleaved yes); FLAG (N); made in house; host or cells: Sf9 insect cells
In short: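 Methyltransferase activity tracked as 3H transfer from 10 nM 3H-SAM to 60 nM biotinylated peptide, counted after streptavidin Flashplate capture and normalised to DMSO and 1000 uM SAH controls. Enzyme: 1.5 nM full-length Sf9-expressed SMYD2, 30 min compound pre-incubation at room temperature, in Bicine pH 7.6 buffer with 2% DMSO; reactions quenched with 600 uM unlabelled SAM; IC50 from 3- or 4-parameter fit.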

T1 sequence (Q9NRG4 whole entry): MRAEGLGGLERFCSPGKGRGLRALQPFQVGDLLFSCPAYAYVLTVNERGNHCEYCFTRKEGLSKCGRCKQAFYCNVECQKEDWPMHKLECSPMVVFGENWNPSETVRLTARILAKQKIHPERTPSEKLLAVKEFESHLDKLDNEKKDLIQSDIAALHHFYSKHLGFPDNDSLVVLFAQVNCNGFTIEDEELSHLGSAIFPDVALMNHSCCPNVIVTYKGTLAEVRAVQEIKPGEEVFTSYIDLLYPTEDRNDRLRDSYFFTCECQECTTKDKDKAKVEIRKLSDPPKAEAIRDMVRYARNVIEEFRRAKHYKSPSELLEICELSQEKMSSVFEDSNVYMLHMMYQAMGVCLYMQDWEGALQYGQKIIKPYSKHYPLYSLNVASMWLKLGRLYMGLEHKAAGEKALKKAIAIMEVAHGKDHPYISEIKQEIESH

SMILES	IC50 [µM]
CC(C)N1C[C@@H](NC(=O)c2cc(C3CC3)on2)C[C@@H]1COCC#CC1CCCCC1 (stereo in doubt) [compound 236, (±)-trans-N-[5-{[(3-cyclo-hexylprop-2-yn-1-yl)oxy]methyl}-1-(propan-2-yl)pyrrolidin-3-yl]-5-cyclopropyl-1,2-oxazole-3-carboxamide]	> 50
C[C@H]1CN(Cc2c[nH]c3ccccc23)C[C@H]1NC(=O)c1cc(C2CC2)on1 (racemic) [compound 194, (±)-cis-5-cyclopropyl-N-[1-(1H-indol-3-ylmethyl)-4-methyl-pyrrolidin-3-yl]-1,2-oxazole-3-carboxamide]	6.86
C[C@@H]1CN(CCC2CCNCC2)C[C@H]1NC(=O)c1cc(C2CC2)on1 (racemic) [compound 133, (±)-trans-5-cyclopropyl-N-[4-methyl-1-[2-(piperidin-4-yl)ethyl]pyrrolidin-3-yl]-1,2-oxazole-3-carboxamide]	> 50
C[C@H]1CN(Cc2ccccn2)C[C@H]1NC(=O)c1cc(C2CC2)on1 (racemic) [compound 121, (±)-cis-5-cyclopropyl-N-[4-methyl-1-(pyridin-2-ylmethyl)pyrrolidin-3-yl]-1,2-oxazole-3-carboxamide]	15.7
C[C@H]1CN(CCC2CCNCC2)C[C@H]1NC(=O)c1cc(C2CC2)on1 (racemic) [compound 337, (±)-cis-5-cyclopropyl-N-{4-methyl-1-[2-(piperidin-4-yl)ethyl]pyrrolidin-3-yl}-1,2-oxazole-3-carboxamide]	10.6
Cc1cc(CN2C[C@H](C)[C@H](NC(=O)c3cc(C4CC4)on3)C2)oc1C (racemic) [compound 268, (±)-cis-5-cyclopropyl-N-{1-[(4,5-dimethyl-furan-2-yl)methyl]-4-methylpyrrolidin-3-yl]-1,2-oxazole-3-carboxamide]	5.3
C[C@H]1CN(Cc2ccsc2)C[C@H]1NC(=O)c1cc(C2CC2)on1 (racemic) [compound 283, (±)-cis-5-cyclopropyl-N-[4-methyl-1-(thiophen-3-ylmethyl)pyrrolidin-3-yl]-1,2-oxazole-3-carboxamide]	1.85
C[C@@H]1CN(c2ccnc(N)n2)C[C@H]1NC(=O)c1cc(C2CC2)on1 (racemic) [compound 314, (±)-trans-N-[1-(2-amino-pyrimidin-4-yl)-4-methylpyrrolidin-3-yl]-5-cyclopropyl-1,2-oxazole-3-carboxamide]	> 50
COc1cccc(N2C[C@H](C)[C@H](NC(=O)c3cc(C4CC4)on3)C2)c1 (racemic) [compound 280, (±)-cis-5-cyclopropyl-N-[1-(3-methoxyphenyl)-4-methylpyrrolidin-3-yl]-1,2-oxazole-3-carboxamide]	> 50
C[C@@H]1CN(CC(=O)N2CCOCC2)C[C@H]1NC(=O)c1cc(C2CC2)on1 (racemic) [compound 271, (±)-trans-5-cyclopropyl-N-[4-methyl-1-[2-(morpholin-4-yl)-2-oxoethyl]pyrrolidin-3-yl]-1,2-oxazole-3-carboxamide]	> 50
CC(=O)Nc1ccccc1N1C[C@H](C)[C@H](NC(=O)c2cc(C3CC3)on2)C1 (racemic) [compound 335, (±)-cis-5-cyclopropyl-N-[1-(2-acetamido-phenyl)-4-methylpyrrolidin-3-yl]-1,2-oxazole-3-carboxamide]	> 50
CC(C)c1cc(C(=O)N[C@H]2C[C@@H](CNC(=O)C3CCCCC3)N(C3CC3)C2)no1 (racemic) [compound 224, (±)-cis-N-[5-[(cyclohexyl-formamido)methyl]-1-cyclopropylpyrrolidin-3-yl]-5-(propan-2-yl)-1,2-oxazole-3-carboxamide]	> 50
C[C@H]1CN(Cc2cc(Cl)cnc2Cl)C[C@H]1NC(=O)c1cc(C2CC2)on1 (racemic) [compound 232, (±)-cis-5-cyclopropyl-N-[1-[(2,5-dichloro-pyridin-3-yl)methyl]-4-methylpyrrolidin-3-yl]-1,2-oxazole-3-carboxamide]	36.1
C[C@H]1CN(Cc2ccc(S(C)(=O)=O)cc2)C[C@H]1NC(=O)c1cc(C2CC2)on1 (racemic) [compound 290, (±)-cis-5-cyclopropyl-N-{1-[(4-methane-sulfonylphenyl)methyl]-4-methylpyrrolidin-3-yl}-1,2-oxazole-3-carboxamide]	10.5
C[C@H]1CN(CC2CCOC2)C[C@H]1NC(=O)c1cc(C2CC2)on1 (mixture of isomers) [compound 155, (±)-cis-5-cyclopropyl-N-[4-methyl-1-(oxolan-3-ylmethyl)pyrrolidin-3-yl]-1,2-oxazole-3-carboxamide]	4.49
C[C@H]1CN(CC2CCNC2)C[C@H]1NC(=O)c1cc(C2CC2)on1 (mixture of isomers) [compound 163, (±)-cis-5-cyclopropyl-N-[4-methyl-1-(pyrrolidin-3-ylmethyl)pyrrolidin-3-yl]-1,2-oxazole-3-carboxamide]	> 50
CC(C)N1C[C@H](C)[C@H](NC(=O)c2cc(C(F)F)on2)C1 (racemic) [compound 300, (±)-cis-5-(difluoro-methyl)-N-[4-methyl-1-(propan-2-yl)pyrrolidin-3-yl]-1,2-oxazole-3-carboxamide]	9.59

The remaining lines, values ahead:

IC50 [µM]	SMILES
> 50	C[C@@H]1CN(CC2CC2)C[C@H]1NC(=O)c1cc(C2CC2)on1 (racemic) [compound 126, (±)-trans-5-cyclopropyl-N-[1-(cyclopropyl-methyl)-4-methyl-pyrrolidin-3-yl]-1,2-oxazole-3-carboxamide]
10.5	CC(C)N1C[C@H](C)[C@H](NC(=O)c2cc(C3CCC3)on2)C1 (racemic) [compound 248, (±)-cis-5-cyclobutyl-N-[4-methyl-1-(propan-2-yl)pyrrolidin-3-yl]-1,2-oxazole-3-carboxamide]
2.65	C[C@H]1CN(Cc2c[nH]cn2)C[C@H]1NC(=O)c1cc(C2CC2)on1 (racemic) [compound 328, (±)-cis-5-cyclopropyl-N-[1-(1H-imidazol-4-ylmethyl)-4-methyl-pyrrolidin-3-yl]-1,2-oxazole-3-carboxamide]
5.85	C[C@H]1CN(CCO)C[C@H]1NC(=O)c1cc(C2CC2)on1 (racemic) [compound 276, (±)-cis-5-cyclopropyl-N-[1-(2-hydroxyethyl)-4-methylpyrrolidin-3-yl]-1,2-oxazole-3-carboxamide]
> 50	CN1C[C@H](NC(=O)c2cc(C3CC3)on2)[C@@H](C2CC2)C1 (racemic) [compound 141, (±)-trans-5-cyclopropyl-N-[4-cyclopropyl-1-methylpyrrolidin-3-yl]-1,2-oxazole-3-carboxamide]
> 50	C[C@@H]1CN(CC(F)(F)F)C[C@H]1NC(=O)c1cc(C2CC2)on1 (racemic) [compound 261, (±)-trans-5-cyclopropyl-N-[4-methyl-1-(2,2,2-trifluoroethyl)pyrrolidin-3-yl]-1,2-oxazole-3-carboxamide]
39.1	CC(C)C[C@H]1CN(C)C[C@@H]1NC(=O)c1cc(C2CC2)on1 (racemic) [compound 153, (±)-trans-5-cyclopropyl-N-[1-methyl-4-(2-methylpropyl)pyrrolidin-3-yl]-1,2-oxazole-3-carboxamide]

same assay, conditions: Table 1; average of n = 1 to n = 50; read-out: SMYD2 Biochem IC50

SMILES	IC50 [µM]
C[C@H]1CN(C2CC2)C[C@@H]1NC(=O)c1cc(C2CCCC2)on1 (racemic) [compound 53, (±)-trans-5-cyclopentyl-N-(1-cyclopropyl-4-methylpyrrolidin-3-yl)isoxazole-3-carboxamide]	> 50
CCc1cc(C(=O)N[C@H]2CN(C3CC3)C[C@@H]2C)no1 (racemic) [compound 52, (±)-trans-N-(1-cyclopropyl-4-methylpyrrolidin-3-yl)-5-ethylisoxazole-3-carboxamide]	> 50

Next, values leading:

IC50 [µM]	SMILES
1.9	CC(C)N1C[C@H](NC(=O)c2cc(C3CC3)on2)[C@@H](C)C1 [compound 42, 5-cyclopropyl-N-((3R,4S)-1-isopropyl-4-methyl-pyrrolidin-3-yl)isoxazole-3-carboxamide]
19.2	C[C@H]1CN(C2CC2)C[C@H]1NC(=O)c1cc(C2CC2)on1 (racemic) [Cpd. No. 45, (±)-cis-5-cyclopropyl-N-(1-cyclopropyl-4-methylpyrrolidin-3-yl)isoxazole-3-carboxamide]
> 50	CN1C[C@@H](O)[C@H](NC(=O)c2cc(C3CC3)on2)C1 (racemic) [compound 40, (±)-trans-5-cyclopropyl-N-(-4-hydroxy-1-methylpyrrolidin-3-yl)isoxazole-3-carboxamide]

same assay, conditions: Table 2; average of n = 1 to n = 50; read-out: SMYD2 Biochem IC50

SMILES	IC50 [µM]
CC(=O)N1CCC(N2C[C@@H](C)[C@H](NC(=O)c3cc(C4CC4)on3)C2)CC1 (racemic) [compound 106, (±)-trans-N-(1-(1-acetylpiperidin-4-yl)-4-methylpyrrolidin-3-yl)-5-cyclopropylisoxazole-3-carboxamide]	> 50
C[C@@H]1CN(C2CCN(C(=O)OC(C)(C)C)CC2)C[C@@H]1NC(=O)c1cc(C2CC2)on1 (racemic) [compound 80, (±)-cis-tert-butyl 4-(3-(5-cyclopropylisoxazole-3-carboxamido)-4-methylpyrrolidin-1-yl)piperidine-1-carboxylate]	30.5

Next, values leading:

IC50 [µM]	SMILES
> 50	C[C@@H]1CN(C(=O)CO)C[C@@H]1NC(=O)c1cc(C2CC2)on1 (racemic) [compound 69, (±)-cis-5-cyclopropyl-N-(1-(2-hydroxyacetyl)-4-methylpyrrolidin-3-yl)isoxazole-3-carboxamide]
> 50	C[C@@H]1CN(CCS(C)(=O)=O)C[C@H]1NC(=O)c1cc(C2CC2)on1 (racemic) [compound 100, (±)-trans-5-cyclopropyl-N-(4-methyl-1-(2-(methyl-sulfonyl)ethyl)pyrrolidin-3-yl)isoxazole-3-carboxamide]
